Results published in the supplement of paper PMC11061612.

Columns and labels:
Assay in all cases: combination Emax (second highest fraction inhibited in the dose matrix, 72 h); higher = more inhibition; extreme values may be limits of the assay
KP-N-YN (Neuroblastoma) = test system: KP-N-YN (Neuroblastoma)
How it was run: (§1)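 Cell lines in DMEM/F12 or RPMI with 10% FBS were plated in 1536-well plates, held 24 hours at 37°C, 5% CO2, then given two-drug dose matrices for 72 hours (DMSO typically 0.2%). Viability was read by CellTiter-Glo 2.0 luminescence and scaled as inhibition from 0 (vehicle wells) to 1 (blank wells). Combination Emax is the second-highest inhibition in the matrix; Bliss excess is observed combination effect minus expected EA + EB − EA·EB, EA and EB being single-agent effects.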

[1] = test system: JHH-2 (Hepatocellular Carcinoma)
How it was run: as §1

IM-9 (Non-Cancerous) = test system: IM-9 (Non-Cancerous)
How it was run: as §1

[2] = test system: G-402 (Other Solid Carcinomas)
How it was run: as §1

[3] = test system: LU-165 (Small Cell Lung Carcinoma)
How it was run: as §1

[4] = test system: Jurkat (T-Lymphoblastic Leukemia)
How it was run: as §1

[5] = test system: NCI-H716 (Colorectal Carcinoma)
How it was run: as §1

COLO-792 (Melanoma) = test system: COLO-792 (Melanoma)
How it was run: as §1

[6] = test system: huH-1 (Hepatocellular Carcinoma)
How it was run: as §1

PEO1 (Ovarian Carcinoma) = test system: PEO1 (Ovarian Carcinoma)
How it was run: as §1

[7] = test system: A253 (Head and Neck Carcinoma)
How it was run: as §1

EB2 (Burkitt's Lymphoma) = test system: EB2 (Burkitt's Lymphoma)
How it was run: as §1

EW-16 (Ewing's Sarcoma) = test system: EW-16 (Ewing's Sarcoma)
How it was run: as §1

RH-41 (Rhabdomyosarcoma) = test system: RH-41 (Rhabdomyosarcoma)
How it was run: as §1

[8] = test system: 22RV1 (Prostate Carcinoma)
How it was run: as §1

[9] = test system: NCI-H441 (Lung Adenocarcinoma)
How it was run: as §1

[10] = test system: GCT (Other Solid Carcinomas)
How it was run: as §1

[11] = test system: GA-10 (Burkitt's Lymphoma)
How it was run: as §1

[12] = test system: OACp4C (Esophageal Adenocarcinoma)
How it was run: as §1

[13] = test system: DU-4475 (Breast Carcinoma)
How it was run: as §1

SMILES	combination Emax (KP-N-YN (Neuroblastoma))	combination Emax [1]	combination Emax (IM-9 (Non-Cancerous))	combination Emax [2]	combination Emax [3]	combination Emax [4]	combination Emax [5]	combination Emax (COLO-792 (Melanoma))	combination Emax [6]	combination Emax (PEO1 (Ovarian Carcinoma))	combination Emax [7]	combination Emax (EB2 (Burkitt's Lymphoma))	combination Emax (EW-16 (Ewing's Sarcoma))	combination Emax (RH-41 (Rhabdomyosarcoma))	combination Emax [8]	combination Emax [9]	combination Emax [10]	combination Emax [11]	combination Emax [12]	combination Emax [13]
CCN(CCO)CCCOc1ccc2c(Nc3cc(CC(=O)Nc4cccc(F)c4)[nH]n3)ncnc2c1 [AZD2811] + O=C(c1cc(Cc2n[nH]c(=O)c3ccccc23)ccc1F)N1CCN(C(=O)C2CC2)CC1 [Olaparib] (first compound max 1 µM, 7x7, partner max 10 µM)	0.541	0.202	0.981	0.605	0.29	0.384	0.367	0.374	0.415	0.29	0.25	0.373	0.626	0.245	0.337	0.227	0.328	0.595	0.408	0.576
COc1nnc2ccc(N3CCC(c4ccc(OCCN5CCN(C)C(=O)[C@H]5C)cc4)CC3)nn12 [AZD5153] + C=CCn1c(=O)c2cnc(Nc3ccc(N4CCN(C)CC4)cc3)nc2n1-c1cccc(C(C)(C)O)n1 [AZD1775] (first compound max 1 µM, partner max 1 µM)	0.924	0.553	0.975	0.85	0.602	0.983	0.524	0.856	0.558	0.691	0.356	0.796	0.679	0.996	0.529	0.436	0.617	0.996	0.882	1
COc1nnc2ccc(N3CCC(c4ccc(OCCN5CCN(C)C(=O)[C@H]5C)cc4)CC3)nn12 [AZD5153] + CC1(C)CCC(CN2CCN(c3ccc(C(=O)NS(=O)(=O)c4ccc(NCC5CCOCC5)c([N+](=O)[O-])c4)c(Oc4cnc5[nH]ccc5c4)c3)CC2)=C(c2ccc(Cl)cc2)C1 [Venetoclax] (first compound max 1 µM, 7x7, partner max 1 µM)	0.673	0.357	0.859	0.769	0.468	0.679	0.615	0.583	0.401	0.368	0.22	0.559	0.464	0.909	0.486	0.381	0.595	0.693	0.545	0.8
COc1nnc2ccc(N3CCC(c4ccc(OCCN5CCN(C)C(=O)[C@H]5C)cc4)CC3)nn12 [AZD5153] + CCN(CCO)CCCOc1ccc2c(Nc3cc(CC(=O)Nc4cccc(F)c4)[nH]n3)ncnc2c1 [AZD2811] (first compound max 1 µM, 7x7, partner max 1 µM)	0.616	0.416	0.897	0.825	0.458	0.745	0.529	0.563	0.527	0.435	0.444	0.589	0.553	0.888	0.522	0.381	0.568	0.74	0.683	0.944
COc1nnc2ccc(N3CCC(c4ccc(OCCN5CCN(C)C(=O)[C@H]5C)cc4)CC3)nn12 [AZD5153] + C[C@@H]1COCCN1C2=NC(=NC(=C2)C3(CC3)[S@](=N)(=O)C)C4=C5C=CNC5=NC=C4 [AZD6738] (first compound max 1 µM, 7x7, partner max 10 µM)	0.955	0.711	0.963	0.941	0.685	0.985	0.702	0.72	0.69	0.748	0.736	0.764	0.747	0.99	0.645	0.562	0.6	0.962	0.856	1
COc1nnc2ccc(N3CCC(c4ccc(OCCN5CCN(C)C(=O)[C@H]5C)cc4)CC3)nn12 [AZD5153] + Cc1c2c(nn1C)CSCc1cc(n(C)n1)CSc1cc(c3ccccc3c1)OCCCc1c(C(=O)O)n(C)c3c-2c(Cl)ccc13 [AZD5991] (first compound max 1 µM, 7x7, partner max 1 µM)	0.449	0.343	0.886	0.987	0.65	1	0.817	1	0.435	0.432	0.816	0.608	0.486	1	0.857	0.384	0.6	0.967	0.789	0.974
COc1nnc2ccc(N3CCC(c4ccc(OCCN5CCN(C)C(=O)[C@H]5C)cc4)CC3)nn12 [AZD5153] + Cn1cnc2c(F)c(Nc3ccc(Br)cc3Cl)c(C(=O)NOCCO)cc21 [Selumetinib] (first compound max 1 µM, 7x7, partner max 10 µM)	0.369	0.427	0.952	0.797	0.357	0.594	0.879	0.882	0.438	0.483	0.456	0.502	0.506	0.92	0.555	0.453	0.59	0.714	0.945	1
